Measurements: article PMC12383145, “Fluorescent Peptides Internalize HeLa Cells and Kill Multidrug-Resistant Clinical Bacterial Isolates” (Antibiotics, 2025)
In brackets after ≈: the same amount, converted by molar mass. Several values for one entry are separate records, joined by “and”; a condition that tells them apart may be missing. Identical values can stand only once. Like-named read-outs stand apart in the source and are kept apart here. Positions of bridges follow the written chain, without caps; N, C: chain ends. Non-standard residues stand in square brackets, D forms with d. Residues, ends and D or L forms follow the SMILES beside them. Chains are numbered I, II in the order given. *: point of attachment. RhodamineB = CCN(CC)c1ccc2c(-c3ccccc3C(=O)*)c3ccc(=[N+](CC)CC)cc-3oc2c1; hPhe = N[C@@H](CCc1ccccc1)C(=O)O; 2Abz = Nc1ccccc1C(=O)O; Ahx = NCCCCCC(=O)O

Tests used:
Type in all cases: cell-based
[1] = MTT cytotoxicity assay in HeLa cells; conditions: human
Experimental: MTT assays were conducted in HeLa cells to evaluate the effect of fluorescent probe incorporation on the in vitro cytotoxic activity of the parent non-conjugated peptides. The cytotoxic effect of peptides 1, Abz-1 RhB-1, 2, and RhB-2 in HeLa cells was peptide concentration-dependent, with the highest anticancer activity observed at 200 µg/mL. Incorporation of 2-Abz and RhB at the N-terminal end reduced cytotoxic activity, while the binding of 2-Abz at the C-terminal end or FAM at the N-terminal end drastically diminished anticancer activity (Table 4).

HeLa cells [2] = assay: Micrographs of cell morphology after peptide treatment; conditions: 100 µg/mL, 2 h, 37 °C
Excerpt: Despite these pronounced morphological alterations, there was no evidence of cell rupture, membrane disintegration, or the presence of cell fragments, indicating the absence of necrotic processes. […] Green arrows indicate normal morphologies, such as cytoplasmic elongations and polygonal shapes. Red arrows indicate morphological changes induced by the peptides, including cell rounding, shrinkage, and loss of cytoplasmic projections. Scale bar: µm. The control corresponds to untreated cells.

HeLa cells [3] = assay: Fluorescence confocal microscopy, colocalization analysis (ImageJ JaCoP); conditions: 2 h at IC50, colocalization with SMA antibody
Experimental: The possible cellular distribution of the peptides was determined by colocalization analysis of the Rhodamine B fluorescent signal, with fluorophores used to stain the nucleus (Hoechst 33342) and cytoplasm components (SMA antibody). ImageJ 1.54f analysis software and the JaCoP plugin were used to analyze signal colocalization.
HeLa cells (>70% confluence) were seeded on sterile round coverslips in 24-well plates with DMEM + 5% FBS and incubated at 37 °C, 5% CO2 for 24 h. After adhesion, the medium was replaced, and cells were treated with fluorescent peptides at their IC50 for 2 h. Then, cells were washed with PBS under constant stirring (3 × 10 min). Cellular fixation was performed using a solution containing 2% paraformaldehyde and 1% sucrose 100 mM in PBS for 30 min, followed by PBS washes (2 × 10 min). Permeabilization was carried out using a solution of 0.1% Triton X-100 and 20 mM glycine in PBS for 10 min, followed by two additional PBS washes. Blocking was performed with 1% BSA and 20 mM glycine in PBS for 10 min. […] For the fluorescence lecture, 5 µL of Fluoromount mounting medium was applied to the slide, and the coverslip containing the cells was inverted onto the medium. Slides were allowed to be dry-protected from light, and cells were visualized using a Leica DMi8 fluorescence confocal microscope. […]

[4] = system: S. aureus clinical isolate 11719; conditions: S. aureus clinical isolate 11719
[5] = system: clinical isolates of E. faecalis; conditions: stated for the E. faecalis clinical isolates together
Experimental: E. coli isolates 1004 (susceptible), 129797 (resistant), and 301755 (MDR) were selected for evaluation. Isolate 1004 was sensitive to all antibiotics tested. […] These findings identify it as a multidrug-resistant (MDR) strain and an extended-spectrum beta-lactamase (ESBL)-producing bacterium. For S. aureus, isolates 109095, 117719, and 124653 were evaluated. All three were resistant to penicillin, indicating beta-lactamase production mediated by the blaZ gene. Studies have shown that up to 90% of S. aureus isolates worldwide are penicillin-resistant, which implies that this antibiotic is ineffective in infections caused by this pathogen. […] Isolate 124653 was resistant to penicillin, tetracycline, and erythromycin, with the latter belonging to the group of macrolides, antibiotics that inhibit protein synthesis through interaction with the 50S rRNA subunit. […]
The minimum inhibitory concentration (MIC) of the peptides was determined by the broth microdilution technique, according to the Clinical and Laboratory Standards Institute (CLSI) guidelines, as previously described. […] Serial dilutions of the peptides to be evaluated in 96-well plates were made in 90 µL of Mueller Hinton broth at concentrations ranging from 200 to 6.25 µg/mL, and 10 µL of the inoculum adjusted to 5 × 10^6 CFU/mL was added. Finally, the plates were incubated at 37 °C for 24 h, and the absorbance at 620 nm was read. […]

[6] = system: K. pneumoniae ATCC 700603; conditions: K. pneumoniae ATCC 700603
Experimental: (§1) The minimum inhibitory concentration (MIC) of the peptides was determined by the broth microdilution technique, according to the Clinical and Laboratory Standards Institute (CLSI) guidelines, as previously described. Briefly, bacterial strains were incubated in BHI broth at 37 °C until they reached the exponential growth phase, and inocula were adjusted to 5 × 10^6 CFU/mL using calibration curves. Serial dilutions of the peptides to be evaluated in 96-well plates were made in 90 µL of Mueller Hinton broth at concentrations ranging from 200 to 6.25 µg/mL, and 10 µL of the inoculum adjusted to 5 × 10^6 CFU/mL was added. Finally, the plates were incubated at 37 °C for 24 h, and the absorbance at 620 nm was read. As a negative control, CMH, distilled water, and 10 µL of inoculum were used; for the positive control, vancomycin was used for Gram-positive strains and ciprofloxacin for Gram-negative strains at the MICs dictated by the CLSI; as a technical control, CMH with peptone water was used, and for the growth control, CMH was used with 10 µL of inoculum.
(§2) To determine the minimum bactericidal concentration (MBC), the 96-well plates where the MIC was determined were used as a starting point. From these, an aliquot of the controls and those wells where no apparent bacterial growth was observed were spotted onto trypticase soy agar plates. The plates were incubated at 37 °C for 24 h, and the reading was taken, identifying the lowest concentration of the peptide where there was no bacterial growth as the MBC.

S. aureus ATCC 25923 = conditions: S. aureus ATCC 25923
Experimental: as §1, §2

P. aeruginosa ATCC 27853 = conditions: P. aeruginosa ATCC 27853
Experimental: as §1, §2

E. coli ATCC 25922 = conditions: E. coli ATCC 25922
Experimental: as §1, §2

E. faecalis ATCC 29212 = conditions: E. faecalis ATCC 29212
Experimental: as §1, §2

Hemolysis assay = assay: Hemolysis assay
Experimental: Whole blood was collected into EDTA tubes and centrifuged at 2500 rpm for 10 min. The plasma and buffy coat were removed, and the erythrocytes were washed three times with 0.9% saline to yield a 4% cell suspension. In 96-well plates, 100 µL of peptide dilutions (6.25–200 µg/mL) were prepared in triplicate, and 100 µL of the erythrocyte suspension was added (final hematocrit 2%). Plates were incubated at 37 °C for 2 h, and then centrifuged again at 2500 rpm for 10 min. A 100 µL aliquot of the supernatant was transferred to a fresh plate, and absorbance was measured at 450 nm. Saline and 1× Triton X-100 served as the negative and positive controls, respectively. Hemolysis (%) was calculated as follows: %hemolysis=treatment absorbance−saline absorbance/1×triton absorbance−saline absorbance

[7] = system: E. coli clinical isolate 301755 (MDR); conditions: E. coli clinical isolate 301755
Experimental: (§3) E. coli isolates 1004 (susceptible), 129797 (resistant), and 301755 (MDR) were selected for evaluation. Isolate 1004 was sensitive to all antibiotics tested. […] These findings identify it as a multidrug-resistant (MDR) strain and an extended-spectrum beta-lactamase (ESBL)-producing bacterium. For S. aureus, isolates 109095, 117719, and 124653 were evaluated. All three were resistant to penicillin, indicating beta-lactamase production mediated by the blaZ gene. Studies have shown that up to 90% of S. aureus isolates worldwide are penicillin-resistant, which implies that this antibiotic is ineffective in infections caused by this pathogen. […] Isolate 124653 was resistant to penicillin, tetracycline, and erythromycin, with the latter belonging to the group of macrolides, antibiotics that inhibit protein synthesis through interaction with the 50S […] subunit. For E. faecalis three isolates were selected: strains 213 (sensitive to all the antibiotics tested), strain 82 (resistant to streptomycin), and strain 179 (resistant to gentamicin). These clinical isolates were selected to assess the antimicrobial activity of the peptide RWQWRWQWR and its analogues conjugated to fluorescent molecules in strains against strains with susceptibility profiles.
(§4) The analysis of synthesized peptides in ATCC reference strains and susceptible, resistant, and multidrug-resistant (MDR) clinical isolates was performed. The clinical isolates were obtained from the National Cancer Institute collection and were previously identified and antibiogrammed using the VITEK system. Additionally, the strains were characterized by MALDI-TOF. The strains were re-primed onto trypticase soy agar and subsequently preserved in Brain–Heart Infusion (BHI) broth containing 20% glycerol. For the MIC and MBC assays, the strains were reactivated and cultured in BHI until they reached their exponential growth phase.
as §1, §2

[8] = system: S. aureus clinical isolate 109095; conditions: S. aureus clinical isolate 109095
Experimental: as §3, §4, §1, §2

[9] = system: E. coli clinical isolate 1004 (susceptible); conditions: E. coli clinical isolate 1004
Experimental: as §3, §4, §1, §2

[10] = system: E. faecalis clinical isolate 213; conditions: E. faecalis clinical isolate 213
Experimental: as §3, §4, §1, §2

[11] = system: E. faecalis clinical isolate 82; conditions: E. faecalis clinical isolate 82
Experimental: as §3, §4, §1, §2

[12] = system: E. faecalis clinical isolate 179; conditions: E. faecalis clinical isolate 179
Experimental: as §3, §4, §1, §2

[13] = system: E. coli clinical isolate 129797 (resistant); conditions: E. coli clinical isolate 129797
Experimental: as §3, §4, §1, §2

[14] = system: S. aureus clinical isolate 124653; conditions: S. aureus clinical isolate 124653
Experimental: as §3, §4, §1, §2

SMILES: CCN(CC)c1ccc2c(-c3ccccc3C(=O)N[C@@H](CCCNC(=N)N)C(=O)N[C@@H](CCCNC(=N)N)C(=O)N[C@@H](Cc3c[nH]c4ccccc34)C(=O)N[C@@H](CCC(N)=O)C(=O)N[C@@H](Cc3c[nH]c4ccccc34)C(=O)N[C@@H](CCCNC(=N)N)C(=O)N[C@@H](CCc3ccccc3)C(=O)N[C@@H](CCCCN)C(=O)N[C@@H](CCCCN)C(=O)N[C@@H](CC(C)C)C(=O)NCC(=O)NCCCC[C@H](NC(=O)CNC(=O)[C@H](CC(C)C)NC(=O)[C@H](CCCCN)NC(=O)[C@H](CCCCN)NC(=O)[C@H](CCc3ccccc3)NC(=O)[C@H](CCCNC(=N)N)NC(=O)[C@H](Cc3c[nH]c4ccccc34)NC(=O)[C@H](CCC(N)=O)NC(=O)[C@H](Cc3c[nH]c4ccccc34)NC(=O)[C@H](CCCNC(=N)N)NC(=O)[C@H](CCCNC(=N)N)NC(=O)c3ccccc3-c3c4ccc(=[N+](CC)CC)cc-4oc4cc(N(CC)CC)ccc34)C(=O)NCCCCCC(N)=O)c3ccc(=[N+](CC)CC)cc-3oc2c1 [RhB-2, (RhB-RRWQWR-hF-KKLG)2K-Ahx] (I: RhodamineB-RRWQWR[hPhe]KKLGK[Ahx]-NH2 / II: RhodamineB-RRWQWR[hPhe]KKLG; amide I:12-II:C)
- IC50 [1]: 151 µg/mL and 35 µM
- morphological changes (HeLa cells [2]): appeared smaller, rounded, and contained vacuoles
- cellular localization (HeLa cells [3]): internalized and distributed in the cytoplasm

SMILES: N=C(N)NCCC[C@H](NC(=O)[C@H](Cc1c[nH]c2ccccc12)NC(=O)[C@H](CCC(N)=O)NC(=O)[C@H](Cc1c[nH]c2ccccc12)NC(=O)[C@H](CCCNC(=N)N)NC(=O)[C@H](Cc1c[nH]c2ccccc12)NC(=O)[C@H](CCC(N)=O)NC(=O)[C@H](Cc1c[nH]c2ccccc12)NC(=O)[C@H](CCCNC(=N)N)NC(=O)c1ccccc1N)C(N)=O [Abz-1, (2-Abz)-RWQWRWQWR] (H-[2Abz]RWQWRWQWR-NH2)
- Minimal bactericidal concentration (MBC) [4]: > 125 µM
- Minimal inhibitory concentration (MIC) [4]: 125 µM (≈ 201 µg/mL)
- MIC [5]: 31 µM (≈ 49.8 µg/mL)
- IC50 ([1]; HeLa cells, MTT, read-out: Cytotoxic Activity (IC50)): 140 µg/mL and 87 µM
- Minimal bactericidal concentration (MBC) [6]: > 125 µM
- Minimal inhibitory concentration (MIC) [6]: > 125 µM
- Minimal bactericidal concentration (MBC) (S. aureus ATCC 25923): 31 µM (≈ 49.8 µg/mL)
- Minimal inhibitory concentration (MIC) (S. aureus ATCC 25923): 16 µM (≈ 25.7 µg/mL)
- Minimal bactericidal concentration (MBC) (P. aeruginosa ATCC 27853): > 125 µM
- Minimal inhibitory concentration (MIC) (P. aeruginosa ATCC 27853): > 125 µM
- Minimal bactericidal concentration (MBC) (E. coli ATCC 25922): 125 µM (≈ 201 µg/mL)
- Minimal inhibitory concentration (MIC) (E. coli ATCC 25922): 62 µM (≈ 99.6 µg/mL)
- Minimal bactericidal concentration (MBC) (E. faecalis ATCC 29212): 62 µM (≈ 99.6 µg/mL)
- Minimal inhibitory concentration (MIC) (E. faecalis ATCC 29212): 62 µM (≈ 99.6 µg/mL)
- hemolysis at 2 h (Hemolysis assay; at 200 µg/mL (highest tested concentration), 2 h, 37 °C, read-out: hemolysis): 13.4%
- hemolysis at 2 h (Hemolysis assay; at the lowest MIC concentration, read-out: Percentage of hemolysis): 6.5%
- selectivity ratio at 2 h (Hemolysis assay; peptide concentration at 10% hemolysis / IC50 in HeLa cells, read-out: Selectivity index): 0.7
- Minimal bactericidal concentration (MBC) [7]: > 125 µM
- Minimal inhibitory concentration (MIC) [7]: > 125 µM
- Minimal bactericidal concentration (MBC) [8]: > 125 µM
- Minimal inhibitory concentration (MIC) [8]: 125 µM (≈ 201 µg/mL)
- Minimal bactericidal concentration (MBC) [9]: > 125 µM
- Minimal inhibitory concentration (MIC) [9]: > 125 µM
- Minimal bactericidal concentration (MBC) [10]: 62 µM (≈ 99.6 µg/mL)
- Minimal inhibitory concentration (MIC) [10]: 31 µM (≈ 49.8 µg/mL)
- Minimal bactericidal concentration (MBC) [11]: 62 µM (≈ 99.6 µg/mL)
- Minimal inhibitory concentration (MIC) [11]: 31 µM (≈ 49.8 µg/mL)
- Minimal bactericidal concentration (MBC) [12]: 62 µM (≈ 99.6 µg/mL)
- Minimal inhibitory concentration (MIC) [12]: 31 µM (≈ 49.8 µg/mL)
- Minimal bactericidal concentration (MBC) [13]: > 125 µM
- Minimal inhibitory concentration (MIC) [13]: > 125 µM
- Minimal bactericidal concentration (MBC) [14]: > 125 µM
- Minimal inhibitory concentration (MIC) [14]: 125 µM (≈ 201 µg/mL)
